Values of other authors as cited in patent US11547663B2, “Unit aerosol doses for anticoagulation” (InCarda Therapeutics, Inc., priority 2015, dated 2023).

Tests used:
[1] = cited from earlier work
[2] = in vivo; cited from earlier work

Structure (SMILES) | Log P [1] | aqueous solubility [1] | elimination half-life [2] | elimination half-life relative to fondaparinux [2]
CCCCS(=O)(=O)N[C@@H](Cc1ccc(OCCCCC2CCNCC2)cc1)C(=O)O [Tirofiban] | 1.4 | low |  | 
CO[C@H]1O[C@H](COS(=O)(=O)O)[C@@H](O[C@@H]2O[C@@H](C(=O)O)[C@@H](O[C@H]3O[C@H](COS(=O)(=O)O)[C@@H](O[C@@H]4O[C@H](C(=O)O)[C@@H](O[C@H]5O[C@H](COS(=O)(=O)O)[C@@H](OC)[C@H](OC)[C@H]5OC)[C@H](OC)[C@H]4OC)[C@H](OS(=O)(=O)O)[C@H]3OS(=O)(=O)O)[C@H](OC)[C@H]2OC)[C@H](OS(=O)(=O)O)[C@H]1OS(=O)(=O)O [idraparinux] |  |  | approximately 80 hours | five to six times longer
